Key:
[1] = system: chimeric human/mouse MHC class II molecules; type: binding
[2] = system: chimeric MHC class II molecules on splenic B cells; type: cell-based, mouse; conditions: overnight incubation of splenic B cells with recombinant IL-4; data not shown

OVA (323-339): a peptide that does not bind to DR4Dw4 (ISQAVHAAHAEINEAGR; UniProt P01012 324-340, looked up, fragment)
binding to chimeric MHC class II molecules [1]: Binding was not observed

myelin basic protein (90-102): DR-restricted synthetic peptide (HLIRLFSRDAPGR; UniProt P02686 90-102, looked up, fragment)
binding to chimeric MHC class II molecules [1]: Specific binding was also observed

B1: recombinant IL-4: recombinant IL-4 (protein, UniProt P07750 21-140, looked up)
Interleukin-4: HIHGCDKNHLREIIGILNEVTGEGTPCTEMDVPNVLTATKNTTESELVCRASKVLRIFYLKHGKTPCLKKNSSVLMELQRLFRAFRCLDSSISCTMNESKSTSLKDFLESLKSIMQMDYS
cell surface level of chimeric MHC class II molecules [2]: increased by three- to fourfold
